The record followed here is patent publication US20260217698A1 (BEYANG THERAPEUTICS CO., LTD., priority 2022, published 2026).

In data set [1] the target is VEGFR2 (Homo sapiens, UniProt P35968). The data set is described as follows: Kinase inhibition, Mobility Shift Assay/IMAP, VEGFR2. Type of data set: biochemical. Also on record: purchased Carna 08-191. The method in brief:
(§1)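 Substrate conversion (phosphorylated vs non-phosphorylated) read by mobility shift on Caliper EZ Reader II and converted to % inhibition relative to no-enzyme and DMSO controls. IC50 fitted from % inhibition versus log compound concentration.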

Data set [2] addresses T1, EGFR (Homo sapiens, UniProt P00533).
T1 construct: purchased Carna 08-115
The data set can be described thus: Kinase inhibition, Mobility Shift Assay/IMAP, EGFR. The data set is classed as biochemical. An outline of the steps: as §1

For data set [3], the target named is T2, VEGFR1 (Homo sapiens, UniProt P17948).
T2 construct: purchased Invitrogen PR6731B
T2 sequence (P17948 27-1338): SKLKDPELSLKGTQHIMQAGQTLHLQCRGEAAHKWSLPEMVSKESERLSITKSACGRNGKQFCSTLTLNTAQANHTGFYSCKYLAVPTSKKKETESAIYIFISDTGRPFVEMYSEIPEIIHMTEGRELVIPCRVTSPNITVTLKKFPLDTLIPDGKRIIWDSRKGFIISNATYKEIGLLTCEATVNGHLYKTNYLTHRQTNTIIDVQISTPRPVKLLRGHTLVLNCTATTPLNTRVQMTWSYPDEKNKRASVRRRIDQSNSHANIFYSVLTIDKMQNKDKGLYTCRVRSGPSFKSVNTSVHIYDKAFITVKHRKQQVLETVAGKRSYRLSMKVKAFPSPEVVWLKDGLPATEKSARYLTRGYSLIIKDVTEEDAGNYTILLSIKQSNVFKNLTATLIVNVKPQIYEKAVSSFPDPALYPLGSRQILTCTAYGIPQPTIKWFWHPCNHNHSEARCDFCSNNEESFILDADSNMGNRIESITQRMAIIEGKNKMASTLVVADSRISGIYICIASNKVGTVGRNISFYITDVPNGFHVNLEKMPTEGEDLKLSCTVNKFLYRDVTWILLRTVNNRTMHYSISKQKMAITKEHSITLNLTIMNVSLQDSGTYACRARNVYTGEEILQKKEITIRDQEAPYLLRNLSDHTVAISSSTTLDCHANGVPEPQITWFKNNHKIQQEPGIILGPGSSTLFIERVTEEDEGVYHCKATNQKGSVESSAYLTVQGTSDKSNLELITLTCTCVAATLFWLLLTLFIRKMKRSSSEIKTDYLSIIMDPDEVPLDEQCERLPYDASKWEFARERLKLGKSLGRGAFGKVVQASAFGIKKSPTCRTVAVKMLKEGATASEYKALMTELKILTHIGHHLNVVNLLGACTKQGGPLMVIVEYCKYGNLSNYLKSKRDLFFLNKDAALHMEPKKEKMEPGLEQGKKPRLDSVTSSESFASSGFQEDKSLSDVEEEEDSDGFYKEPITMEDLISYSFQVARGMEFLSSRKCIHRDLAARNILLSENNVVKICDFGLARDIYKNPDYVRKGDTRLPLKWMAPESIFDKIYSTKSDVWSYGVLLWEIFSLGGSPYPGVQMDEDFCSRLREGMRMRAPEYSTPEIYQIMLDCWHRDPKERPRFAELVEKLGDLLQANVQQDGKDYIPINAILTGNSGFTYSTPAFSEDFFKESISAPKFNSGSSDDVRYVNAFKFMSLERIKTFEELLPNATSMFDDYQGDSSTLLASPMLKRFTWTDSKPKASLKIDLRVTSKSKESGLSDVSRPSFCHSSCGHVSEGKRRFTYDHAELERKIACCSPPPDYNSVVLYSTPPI
The data set can be described thus: Kinase inhibition, Mobility Shift Assay/IMAP, VEGFR1. The data set is classed as biochemical. An excerpt: (§2) This assay directly monitored the ability of compounds to inhibit kinase phosphorylation by measuring non-phosphorylated and phosphorylated substrates in kinase reactions by using Mobility Shift Assays/IMAP™ analysis.
(§3) Read the conversion ratio data on CaliperEZ Reader II. Convert conversion rates into inhibition ratio data.
(§4) “Min” indicates the readout of the control well without the addition of enzymes; and “Max” indicates the readout of the control well with the addition of DMSO Fit IC50 values with XL Fit excel add-in version […].
(§5) X indicates the log value of compound concentration, and Y indicates the inhibition ratio (% inhibition).

The target of data set [4] is T3, VEGFR3 (Homo sapiens, UniProt P35916).
T3 construct: purchased Invitrogen PV4129
T3 sequence (P35916 25-1363): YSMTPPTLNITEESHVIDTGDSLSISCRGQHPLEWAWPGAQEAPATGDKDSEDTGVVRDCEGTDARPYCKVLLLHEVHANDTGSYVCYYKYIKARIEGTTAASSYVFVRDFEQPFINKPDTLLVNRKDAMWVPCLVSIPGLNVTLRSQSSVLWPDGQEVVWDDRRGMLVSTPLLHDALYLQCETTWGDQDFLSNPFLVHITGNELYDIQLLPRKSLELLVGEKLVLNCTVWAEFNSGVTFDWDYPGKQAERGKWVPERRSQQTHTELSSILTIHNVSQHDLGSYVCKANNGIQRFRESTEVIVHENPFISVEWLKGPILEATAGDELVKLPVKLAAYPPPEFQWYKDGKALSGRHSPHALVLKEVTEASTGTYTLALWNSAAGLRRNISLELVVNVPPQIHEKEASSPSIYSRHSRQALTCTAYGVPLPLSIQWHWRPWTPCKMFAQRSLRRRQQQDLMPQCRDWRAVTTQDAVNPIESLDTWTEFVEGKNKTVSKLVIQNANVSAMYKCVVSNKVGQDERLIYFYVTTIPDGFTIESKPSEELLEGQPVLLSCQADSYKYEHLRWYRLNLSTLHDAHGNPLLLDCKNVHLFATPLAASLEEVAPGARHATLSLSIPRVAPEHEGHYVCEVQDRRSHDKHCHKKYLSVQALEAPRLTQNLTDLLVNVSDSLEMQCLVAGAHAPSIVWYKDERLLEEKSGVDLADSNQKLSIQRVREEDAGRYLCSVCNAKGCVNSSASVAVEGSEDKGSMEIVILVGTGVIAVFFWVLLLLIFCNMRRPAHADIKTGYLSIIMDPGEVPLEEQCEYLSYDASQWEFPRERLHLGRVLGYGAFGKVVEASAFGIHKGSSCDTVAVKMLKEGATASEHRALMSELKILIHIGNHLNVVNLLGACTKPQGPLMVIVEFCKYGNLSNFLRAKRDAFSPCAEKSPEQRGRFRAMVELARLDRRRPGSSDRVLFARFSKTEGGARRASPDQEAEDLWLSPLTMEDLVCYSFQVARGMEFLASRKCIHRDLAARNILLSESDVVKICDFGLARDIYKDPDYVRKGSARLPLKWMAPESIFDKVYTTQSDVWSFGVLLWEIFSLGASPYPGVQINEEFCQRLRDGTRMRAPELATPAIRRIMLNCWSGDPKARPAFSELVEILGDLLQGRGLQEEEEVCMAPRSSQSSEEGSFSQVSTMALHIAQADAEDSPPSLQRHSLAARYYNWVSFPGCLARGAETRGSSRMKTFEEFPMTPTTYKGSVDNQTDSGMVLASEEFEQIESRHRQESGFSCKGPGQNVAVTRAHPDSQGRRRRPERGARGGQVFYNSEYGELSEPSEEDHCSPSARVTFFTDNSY
The data set is described as follows: Kinase inhibition, Mobility Shift Assay/IMAP, VEGFR3. Type of data set: biochemical.
Excerpt: as §2, §3, §4, §5

The test system of data set [5] is melanin. The data set is described as follows: Binding capacity of compounds to melanin. The data set is classed as in vitro ADME, cuttlefish (Sepia officinalis). The note with it: cuttlefish (Sepia officinalis), melanin suspension (1 mg/mL); 1 mg/mL melanin in PBS pH 7.4, 2 μM compound, 2 h at 37° C.; read-out: Fu % (percentage of free drug). An excerpt: Pigmented eye tissues contain melanin in intracellular melanosomes. Drugs bind to melanin to varying degrees, ranging from non-binding to extensive binding. Therefore, melanin binding is an important feature that affects drug delivery and biodistribution in the eye. The binding capacity of the compound to the melanin must be considered in the development of ophthalmic drugs.
Melanin was derived from the melanin of cuttlefish (Sepia officinalis) and was commercially available from Sigma Aldrich (St Louis, MO).
First, prepare 1 mg/mL melanin suspension with PBS (pH 7.4). As a washing step for the matrix, centrifuge the suspended particles for 5 min at 3000 rpm. Resuspend the resulting particles in a fresh PBS buffer, heat to 37° C. over continuous shaking and incubate it for 1 h. Accurately pipette 2 μL of the test stock solution (0.1 mM) into 98 μL of melanin suspension (1 mg/mL) to achieve a final incubation concentration of 2 μM. Similarly, accurately pipette 2 μL of the stock solution (0.1 mM) to 98 μL of PBS buffer (containing 0.1% BSA) as a blank control sample. Incubate the samples in a shaker (80-90 rpm) for 2 h at 37° C. Then, centrifuge the samples at room temperature. Pipette 50 μL of the supernatant and add 50 μL of precipitant (containing an internal standard). After protein precipitation of all the above samples, centrifuge the samples to collect the supernatants, dilute the supernatants with water (if necessary) and inject them for analysis. At the same time, measure the positive controls, including the high-binding compounds Sunitinib and chloroquine and the low-binding compound celecoxib. Establish an LC-MS/MS method for determining compound concentrations, and calibrate the peak area ratio of analyte/internal standard (Analyte/AIS) in the measured sample by the dilution factor to take it as an alternative concentration for the sample for data processing. The binding rate (Fb) of a compound in melanin was calculated as: […]
Ctest was the concentration of the compound in the melanin-incubated sample or the peak area ratio of the test compound to the internal standard. Ccontrol was the concentration of the compound in the blank control sample or the peak area ratio of the test compound to the internal standard. […]

Data set [6] addresses T4, TIE2 (Homo sapiens, UniProt Q02763).
T4 construct: purchased BPS 40270
The data set is described as follows: Kinase inhibition, Mobility Shift Assay/IMAP, TIE2. The data set is classed as biochemical.
Excerpt: as §2, §3, §4, §5

Sequence of VEGFR2 (P35968 790-1356 limits assumed): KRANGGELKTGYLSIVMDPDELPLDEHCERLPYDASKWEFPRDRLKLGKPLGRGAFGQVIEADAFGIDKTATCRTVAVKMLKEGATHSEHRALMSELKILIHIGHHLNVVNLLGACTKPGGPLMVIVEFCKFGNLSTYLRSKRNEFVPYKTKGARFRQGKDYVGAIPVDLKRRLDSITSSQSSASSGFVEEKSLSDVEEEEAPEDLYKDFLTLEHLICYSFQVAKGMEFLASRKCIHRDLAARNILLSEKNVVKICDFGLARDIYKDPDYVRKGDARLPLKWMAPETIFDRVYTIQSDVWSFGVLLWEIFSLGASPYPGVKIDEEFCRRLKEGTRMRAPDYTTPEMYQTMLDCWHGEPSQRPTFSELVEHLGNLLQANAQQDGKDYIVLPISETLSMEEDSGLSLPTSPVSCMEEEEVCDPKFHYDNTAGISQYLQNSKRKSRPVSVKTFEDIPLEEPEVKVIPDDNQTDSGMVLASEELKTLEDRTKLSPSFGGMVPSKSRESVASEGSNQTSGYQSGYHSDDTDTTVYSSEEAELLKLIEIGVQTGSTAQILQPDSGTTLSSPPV
T1 sequence (P00533 669-1210 limits assumed): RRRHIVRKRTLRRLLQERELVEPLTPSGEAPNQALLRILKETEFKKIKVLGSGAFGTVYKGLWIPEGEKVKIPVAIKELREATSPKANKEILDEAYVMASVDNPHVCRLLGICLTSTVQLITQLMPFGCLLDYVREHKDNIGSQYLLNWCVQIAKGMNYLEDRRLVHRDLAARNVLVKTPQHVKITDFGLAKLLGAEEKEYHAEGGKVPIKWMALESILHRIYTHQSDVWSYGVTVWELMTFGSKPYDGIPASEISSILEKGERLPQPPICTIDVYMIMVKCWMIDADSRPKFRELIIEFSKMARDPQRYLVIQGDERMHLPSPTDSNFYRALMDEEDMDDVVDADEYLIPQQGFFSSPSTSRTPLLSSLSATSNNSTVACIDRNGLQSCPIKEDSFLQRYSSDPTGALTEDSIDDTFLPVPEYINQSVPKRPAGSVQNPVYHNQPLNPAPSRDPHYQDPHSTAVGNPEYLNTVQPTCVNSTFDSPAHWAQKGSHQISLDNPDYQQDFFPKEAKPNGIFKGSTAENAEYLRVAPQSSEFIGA
T4 sequence (Q02763 23-1124): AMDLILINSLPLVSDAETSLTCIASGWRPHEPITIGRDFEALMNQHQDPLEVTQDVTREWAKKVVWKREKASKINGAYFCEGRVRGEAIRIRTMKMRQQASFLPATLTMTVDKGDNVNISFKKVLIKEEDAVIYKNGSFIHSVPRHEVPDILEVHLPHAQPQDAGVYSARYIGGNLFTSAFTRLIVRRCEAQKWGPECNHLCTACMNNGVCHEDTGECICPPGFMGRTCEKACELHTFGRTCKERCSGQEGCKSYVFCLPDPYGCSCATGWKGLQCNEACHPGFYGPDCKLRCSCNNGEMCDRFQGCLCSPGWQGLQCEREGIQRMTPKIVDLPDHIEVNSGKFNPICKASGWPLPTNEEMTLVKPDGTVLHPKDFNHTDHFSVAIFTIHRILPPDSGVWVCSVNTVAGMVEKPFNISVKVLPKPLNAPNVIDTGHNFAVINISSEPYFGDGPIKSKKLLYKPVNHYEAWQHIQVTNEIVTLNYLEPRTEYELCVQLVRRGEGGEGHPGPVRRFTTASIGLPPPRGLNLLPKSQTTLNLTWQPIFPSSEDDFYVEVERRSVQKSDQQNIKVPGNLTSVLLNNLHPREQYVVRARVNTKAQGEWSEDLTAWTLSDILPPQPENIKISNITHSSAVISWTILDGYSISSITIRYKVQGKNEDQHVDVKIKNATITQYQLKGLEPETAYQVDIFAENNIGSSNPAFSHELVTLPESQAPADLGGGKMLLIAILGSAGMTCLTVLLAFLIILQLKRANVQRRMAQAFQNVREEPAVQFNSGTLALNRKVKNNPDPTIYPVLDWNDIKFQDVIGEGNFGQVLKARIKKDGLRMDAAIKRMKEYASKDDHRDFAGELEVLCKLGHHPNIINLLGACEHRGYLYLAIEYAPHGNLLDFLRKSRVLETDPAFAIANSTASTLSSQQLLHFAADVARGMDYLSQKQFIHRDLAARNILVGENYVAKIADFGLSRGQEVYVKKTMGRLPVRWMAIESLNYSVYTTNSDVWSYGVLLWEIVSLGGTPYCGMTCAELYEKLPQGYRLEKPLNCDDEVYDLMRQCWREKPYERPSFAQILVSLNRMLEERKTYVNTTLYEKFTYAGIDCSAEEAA

For `CCN1CCC(CCNC(=O)Nc2snc(OCc3ccc4c(c3)OCC4)c2C(N)=O)CC1` [Compound T076, 3-(2,3-dihydrobenzofuran-6-ylmethoxy)-5-[2-(1-ethyl-4-piperidyl)ethylcarbamoylamino]isothiazole-4-carboxamide], the IC50 in data set [1] came to 12.6 nM; in data set [2] it was 43600 nM; in data set [3], 26.7 nM; in data set [4], 23.8 nM. The fraction unbound at 2 h, 2 μM in data set [5] is 0.0311.
As to `CN1CCN(CCCNC(=O)Nc2snc(OCc3ccc4c(c3)OCC4)c2C(N)=O)CC1` [Compound T077, 3-(2,3-dihydrobenzofuran-6-ylmethoxy)-5-[3-(4-methylpiperazin-1-yl)propylcarbamoylamino]isothiazole-4-carboxamide], the IC50 in data set [1] turned out to be 7.01 nM; in data set [2] it was 52000 nM; in data set [3], 33 nM; in data set [4], 44 nM. The fraction unbound at 2 h, 2 μM in data set [5] came to 0.0385.
Take `COc1ccc(F)c(COc2nsc(NC(=O)NCCCCN3CCCC3)c2C(N)=O)c1` [Compound T092, 3-[(2-fluoro-5-methoxy-phenyl)methoxy]-5-(4-pyrrolidin-1-ylbutylcarbamoylamino)isothiazole-4-carboxamide]: the results for the IC50 in data set [1] and in data set [6] were 17.2 nM and 596 nM, respectively. Moreover, the fraction unbound at 2 h, 2 μM in data set [5] was determined as 0.031.
`NC(=O)c1c(OCc2c(F)cc(Br)cc2F)nsc1Nc1cnn(CCN2CCNCC2)c1` [Compound T050, 3-((4-bromo-2,6-difluorobenzyl)oxy)-5-((1-(2-(piperazin-1-yl)ethyl)-1H-pyrazol-4-yl)amino)isothiazole-4-carboxamide]: the values for the IC50 in data set [1], in data set [3] and in data set [4] were 3.68 nM, 6.08 nM and 16.1 nM, respectively.
As to `COc1cc(COc2nsc(NC(=O)NCCCCN3CCC(F)(F)C3)c2C(N)=O)cc(OC)c1` [Compound T063, 5-(3-(4-(3,3-difluoropyrrolidin-1-yl)butyl)ureido)-3-((3,5-dimethoxybenzyl)oxy)isothiazole-4-carboxamide], the concentration for half-maximal inhibition (IC50) is 63 nM in data set [1], above 60000 nM in data set [2], 1000 nM in data set [6] and 39.1 nM in data set [4]. In addition, the fraction unbound at 2 h, 2 μM in data set [5] was 0.0871.
In the case of `NC(=O)c1c(OCc2cc(C(=O)NC3CC3)ccc2F)nsc1NC(=O)NCCC1CCN(CCF)CC1` [Compound T108, 3-[[5-(cyclopropylcarbamoyl)-2-fluoro-phenyl]methoxy]-5-[2-[1-(2-fluoroethyl)-4-piperidyl]ethylcarbamoylamino]isothiazole-4-carboxamide], the values for the IC50 in data set [1] and in data set [6] were 0.72 nM and 621 nM, respectively. Further, the fraction unbound at 2 h, 2 μM in data set [5] was 0.0271.
As to `COc1cc(OC)c(F)c(COc2nsc(NC(=O)NCCCCN3CC[C@@H](O)C3)c2C(N)=O)c1F` [Compound T135, 3-[(2,6-difluoro-3,5-dimethoxy-phenyl)methoxy]-5-[4-[(3R)-3-hydroxypyrrolidin-1-yl]butylcarbamoylamino]isothiazole-4-carboxamide], the IC50 in data set [1] was 1.9 nM; in data set [2], above 60000 nM; in data set [6], 97 nM. For the same compound, in data set [5], the fraction unbound at 2 h, 2 μM turned out to be 0.02.
As to `NC(=O)c1c(OCc2cccc(C(=O)NC3CC3)c2)nsc1NC(=O)NCCN1CCCC1` [Compound T066, 3-((3-(cyclopropylcarbamoyl)benzyl)oxy)-5-(3-(2-(pyrrolidin-1-yl)ethyl)ureido)isothiazole-4-carboxamide], the IC50 was 77.8 nM in data set [1], above 60000 nM in data set [2], 37.9 nM in data set [3] and 10000 nM in data set [6].
As to `CN1CC[C@@H](CCNC(=O)Nc2snc(OCc3cc4c(cc3F)CCO4)c2C(N)=O)C1` [Compound T102, 3-[(5-fluoro-2,3-dihydrobenzofuran-6-yl)methoxy]-5-[2-[(3R)-1-methylpyrrolidin-3-yl]ethylcarbamoylamino]isothiazole-4-carboxamide], the IC50 came out at 5.5 nM in data set [1], 9890 nM in data set [2] and 142 nM in data set [6]. For the same compound, the fraction unbound at 2 h, 2 μM in data set [5] worked out at 0.0235.
For `CCNC(=O)c1cccc(COc2nsc(NC(=O)NCCCCN3CCCC3)c2C(N)=O)c1` [Compound T058, 3-((3-(ethylcarbamoyl)benzyl)oxy)-5-(3-(4-(pyrrolidin-1-yl)butyl)ureido)isothiazole-4-carboxamide], the results for the half-inhibitory concentration (IC50) in data set [1], in data set [2] and in data set [3] were 20.9 nM, above 60000 nM and 30 nM, respectively. In data set [5], the fraction unbound at 2 h, 2 μM was determined as 0.0225.
`COc1ccc(F)c(COc2nsc(NC(=O)NCCCN3CC[C@H](F)C3)c2C(N)=O)c1F` [Compound T120, 3-[(2,6-difluoro-3-methoxy-phenyl)methoxy]-5-[3-[(3S)-3-fluoropyrrolidin-1-yl]propylcarbamoylamino]isothiazole-4-carboxamide]: the results for the half-maximal inhibitory concentration (IC50) in data set [1], in data set [2] and in data set [6] were 47 nM, 40700 nM and 397 nM, respectively. In addition, the fraction unbound at 2 h, 2 μM in data set [5] amounted to 0.0173.
Turning to `COc1ccc(F)c(COc2nsc(NC(=O)NCCCN3CCN(C)CC3)c2C(N)=O)c1F` [Compound T107, 3-[(2,6-difluoro-3-methoxy-phenyl)methoxy]-5-[3-(4-methylpiperazin-1-yl)propylcarbamoylamino]isothiazole-4-carboxamide], the half-maximal inhibitory concentration (IC50) was determined as 8.57 nM in data set [1], 9140 nM in data set [2] and 124 nM in data set [6]. The fraction unbound at 2 h, 2 μM in data set [5] stood at 0.0403.
Take `COc1cc(COc2nsc(NC(=O)NCCCCN3CCCC3)c2C(N)=O)c(F)c(OC)c1` [Compound T094, 3-[(2-fluoro-3,5-dimethoxy-phenyl)methoxy]-5-(4-pyrrolidin-1-ylbutylcarbamoylamino)isothiazole-4-carboxamide]: the half-inhibitory concentration (IC50) in data set [1] is 9.1 nM; in data set [2] it was above 60000 nM; in data set [6], 413 nM. Besides, the fraction unbound at 2 h, 2 μM in data set [5] amounted to 0.0481.
Consider `COc1ccc(F)c(COc2nsc(NC(=O)NCCCCN3CCC(F)(F)CC3)c2C(N)=O)c1F` [Compound T130, 3-[(2,6-difluoro-3-methoxy-phenyl)methoxy]-5-[4-(4,4-difluoro-1-piperidyl)butylcarbamoylamino]isothiazole-4-carboxamide], for which the figures for the IC50 in data set [1], in data set [2] and in data set [6] were 41 nM, 13700 nM and 471 nM, respectively. Further, the fraction unbound at 2 h, 2 μM in data set [5] is 0.0709.
In the case of `CN(C)CCCn1ncc(Nc2snc(OCc3c(F)cc(Br)cc3F)c2C(N)=O)n1` [Compound T052, 3-((4-bromo-2,6-difluorobenzyl)oxy)-5-((2-(3-(dimethylamino)propyl)-2H-1,2,3-triazol-4-yl)amino)isothiazole-4-carboxamide], the IC50 is 8.17 nM in data set [1], 42.1 nM in data set [3] and 18.7 nM in data set [4].
For `COc1ccc(F)c(COc2nsc(NC(=O)NCCCCN3CCOCC3)c2C(N)=O)c1F` [Compound T132, 3-[(2,6-difluoro-3-methoxy-phenyl)methoxy]-5-(4-morpholinobutylcarbamoylamino)isothiazole-4-carboxamide], the figures for the IC50 in data set [1], in data set [2] and in data set [6] were 14.7 nM, 19200 nM and 163 nM, respectively. Also, the fraction unbound at 2 h, 2 μM in data set [5] stood at 0.0363.
With `COc1ccc(F)c(COc2nsc(NC(=O)NCCCCN3CCC(F)CC3)c2C(N)=O)c1F` [Compound T125, 3-[(2,6-difluoro-3-methoxy-phenyl)methoxy]-5-[4-(4-fluoro-1-piperidyl)butylcarbamoylamino]isothiazole-4-carboxamide], the figures for the IC50 in data set [1], in data set [2] and in data set [6] were 13.5 nM, 9710 nM and 161 nM, respectively. Also, the fraction unbound at 2 h, 2 μM in data set [5] was found to be 0.0402.

The IC50 is the concentration needed to halve the response being measured.
